From patent US10087421B2, “Stem cell suspension” (OTSUKA PHARMACEUTICAL FACTORY, INC., priority 2010, dated 2018) come the findings set out here.

Series [1] deals with hAT-MSCs P8 and hBM-MSCs P6. The series is described as follows: Survival rate, cell aggregation and floating after standing for 1 hr (Example 7). The series is classed as cell-based, human. To be noted: about 25° C. Here is the method: hAT-MSCs and hBM-MSCs were passaged 6 or 8 times and the obtained cells (hAT-MSCs P8 and hBM-MSCs P6) were plated on 10 cm-dishes. The cells were washed three times with 5-ml HESPANDER (KYORIN Pharmaceutical Co., Ltd.) per 10-cm dish, and detached by treating with 1-ml trypsin-EDTA (0.25% trypsin, 1 mM EDTA·4Na) for 20 sec into a single-cell state. The obtained cells (hAT-MSCs P8, 2.4×10^6 cells; hBM-MSCs P6, 2.3×10^6 cells) were transferred to a 15-ml FALCON tube, recovered by centrifugation, and suspended in the following composition solution. After standing at room temperature (about 25° C.) for 1 hr, the survival rate of the cells was measured and the cell aggregation was observed.

Series [2] deals with hAT-MSC P3 and hBM-MSC P3. The series is described as follows: Cell morphology, culture after standing and survival, results not separated by cell type. Format: cell-based, human. Particulars: trehalose in HESPANDER; 36 hr (Example 6). Here is the method:
The cells obtained by passaging hAT-MSCs and hBM-MSCs three times (hAT-MSC P3 and hBM-MSC P3) were plated on 10-cm dishes. The cells were washed three times with 5-ml PBS(−) per 10-cm dish, and detached by treating with 1-ml trypsin-EDTA (0.25% trypsin, 1 mM EDTA·4Na) for 20 sec into a single-cell state. […] After standing at room temperature (about 25° C.) for 240 min or 24 hr, the survival rate of the cells was measured, and the cell aggregation and morphology were observed. Furthermore, after standing for 240 min or 24 hr, the cells were further cultured for 12 hr and the cell morphology was observed.
hAT-MSCs and hBM-MSCs were passaged three times and the obtained cells (hAT-MSCs P3 and hBM-MSCs P3) were plated on 10 cm-dishes. The cells were washed three times with 5-ml PBS(−) per 10-cm dish, and detached by treating with 1-ml trypsin-EDTA (0.25% trypsin, 1 mM EDTA·4Na) for 20 sec into a single-cell state. The obtained cells (hAT-MSCs P3, 4.25×10^5 cells; survival rate, 97.5%: hBM-MSCs P3, 5.0×10^5 cells; survival rate, 98.2%) were transferred to a 15-ml FALCON tube, recovered by centrifugation, washed twice with PBS(−), and suspended in the following composition solution (100 μL). After standing at room temperature (about 25° C.) for 8 hr or 36 hr, the survival rate of the cells was measured and the cell aggregation was observed.

In series [3] the test system is Swine subcutaneous adipose tissue-derived mesenchymal stem cells (Pig AT-MSCs). The experiment in a line: Microscopic observation of cell aggregate mass and cell floating state. The series is classed as cell-based. To be noted: from dilution series of ET-K with saline; Pig AT-MSCs P2; 25° C. Here is the method:
The suspension was left standing at each temperature (0, 25, and 37° C.), pipetted several times with 20 μL PIPETMAN 0, 30, 60, 120 and 240 min later, and 10 μL thereof was transferred to a dish. A stereomicroscope was focused on the lowermost surface of the suspension on the dish, and observation was performed. The cells forming a mass with adjacent cells under the microscope were taken as cell aggregate mass. The cell aggregate mass was confirmed to be obviously moving as a mass by shaking the dish on the stage of the microscope. The swine subcutaneous adipose tissue-derived mesenchymal stem cells prepared in Example 1 were passaged twice and the obtained cells (Pig AT-MSCs P2) were plated on three 10 cm-dishes. The cells were washed three times with 5 ml PBS(−) per 10 cm dish, and detached by treating with 1 ml trypsin-EDTA (0.25% trypsin, 1 mM EDTA·4Na) for 20 sec into a single-cell state. […] Thereafter, in the same manner as in Example 1, the survival rate was calculated and the presence or absence of the cell aggregate mass was observed. […] Thereafter, in the same manner as in Example 1, the survival rate was calculated and the presence or absence of a cell aggregate mass was observed. […]

On to `OC[C@H]1O[C@H](O[C@H]2O[C@H](CO)[C@@H](O)[C@H](O)[C@H]2O)[C@H](O)[C@@H](O)[C@@H]1O` [trehalose], for which, in series [1], the “cell aggregation suppressive effect” value is “observed”, the cell floating effect result was “observed” and the “protrusion from the cell / on the cell surface” value is listed as “suppressed”. Further, the cell survival rate result in series [1] (added to HESPANDER) is “higher than by adding HESPANDER (H) alone”. Besides, the “effect on the cytotoxicity of fucoidan” value in series [1] (trehalose with 10 μg/ml fucoidan in HESPANDER) is given as “tendency to suppress the cytotoxicity of fucoidan”. Moreover, the “trehalose concentration suggested to be preferable to increase the cell survival rate” value in series [2] is “not more than 181.2 mg/mL”. In addition, in series [3], the “trehalose concentration at which a stem cell aggregation suppressive effect is exhibited” value is listed as “not less than 15.1 mg/ml” and the “trehalose concentration at which the stem cells float stably” value is recorded as “at least 15.1 mg/ml”.
